Results from patent publication US6160004A, “C-10 carbon-substituted artemisinin-like trioxane compounds having antimalarial, antiproliferative and antitumor activities” (priority 1998, dated 2000).
Like-named read-outs stand apart in the source and are kept apart here.

Columns and labels:
HCT-15 = assay: cells; assay type: cell-based; conditions: Homo sapiens, read-out: Log10 LC50 (converted)
MDA-N = assay: NCI 60 cell line panel screening assay (SRB), MDA-N; assay type: cell-based; conditions: Homo sapiens, breast cancer, 48 h
SK-MEL-28 = assay: cells; assay type: cell-based; conditions: Homo sapiens; for CC50: read-out: Log10 LC50 (converted); for IC (TGI): read-out: Log10 TGI
HCT-116 = assay: cells; assay type: cell-based; conditions: Homo sapiens, HCT-116, 48 h
SF-268 = assay: cells; assay type: cell-based; conditions: Homo sapiens; for CC50: read-out: Log10 LC50 (converted)
UACC-62 = assay: cells; assay type: cell-based; conditions: Homo sapiens, UACC-62, melanoma, 48 h
CAKI-1 = assay: NCI 60 cell line panel screening assay (SRB), CAKI-1; assay type: cell-based; conditions: Homo sapiens, CAKI-1, renal cancer, 48 h
K-562 = assay: cells; assay type: cell-based; conditions: Homo sapiens; for CC50: read-out: Log10 LC50 (converted)
T-47D = assay: NCI 60 cell line panel screening assay (SRB), T-47D; conditions: Homo sapiens, T47D, 48 h; for CC50: read-out: Log10 LC50 (converted)
HT29 = assay: cells; assay type: cell-based; conditions: Homo sapiens
MCF7 = assay: cells; assay type: cell-based; conditions: Homo sapiens
OVCAR-5 = assay: cells; assay type: cell-based; conditions: Homo sapiens
SN12C = assay: NCI 60 cell line panel screening assay (SRB), SN12C; assay type: cell-based; conditions: Homo sapiens, 48 h
SNB-75 = assay: cells; assay type: cell-based; conditions: Homo sapiens; for CC50: read-out: Log10 LC50 (converted)
BT-549 = assay: cells; assay type: cell-based; conditions: Homo sapiens, read-out: Log10 LC50 (converted)
KM12 = assay: cells; assay type: cell-based; conditions: Homo sapiens; for GI50: read-out: Log10 GI50 (converted)
TK-10 = assay: cells; assay type: cell-based; conditions: Homo sapiens; for CC50: read-out: Log10 LC50 (converted)
NCI-H322M = assay: cells; conditions: Homo sapiens, 48 h; for CC50: read-out: Log10 LC50 (converted)
M14 = assay: NCI 60 cell line panel screening assay (SRB), M14; conditions: Homo sapiens, M14, 48 h
MOLT-4 [1] = assay: cells; conditions: Homo sapiens; for IC50: MOLT-4, read-out: concentration for primary growth inhibition (PG +50)
SK-OV-3 = assay: cells; assay type: cell-based; conditions: Homo sapiens; for IC (TGI): read-out: Log10 TGI (converted)
SR = assay: cells; assay type: cell-based; conditions: Homo sapiens, 48 h; for CC50: read-out: Log10 LC50 (converted)
HOP-92 = assay: cells; assay type: cell-based; conditions: Homo sapiens
DU-145 = assay: cells; assay type: cell-based
MOLT-4 [2] = conditions: MOLT-4, FIG. 6
PC-3 = assay: cells; assay type: cell-based; conditions: Homo sapiens; PC-3, prostate cancer, 48 h; read-out: Log10 GI50 (converted)
SW-620 = assay: NCI 60 cell line panel screening assay (SRB), SW-620; assay type: cell-based; conditions: Homo sapiens
U251 = assay: cells; assay type: cell-based; conditions: Homo sapiens, U-251, 48 h, read-out: Log10 GI50 (converted)
COLO 205 = assay: NCI 60 cell line panel screening assay (SRB), COLO 205; assay type: cell-based; conditions: Homo sapiens, COLO 205, 48 h, read-out: Log10 GI50 (converted)
RPMI-8226 = assay: NCI 60 cell line panel screening assay (SRB), RPMI-8226; assay type: cell-based; conditions: Homo sapiens
[3] = read-out: Log10 LC50 (converted)
[4] = read-out: Log10 TGI (converted)
[5] = read-out: Log10 GI50 (converted)
[6] = MOLT-4, 48 h, read-out: Log10 LC50 (converted)
[7] = MOLT-4, read-out: concentration for cytotoxicity (PG -50)

C[C@H]1[C@@H](F)O[C@@H]2O[C@@]3(C)CC[C@H]4[C@H](C)CC[C@@H]1[C@@]24OO3 [Compound VI, 10β-Fluoro-10-deoxoartemisinin]
CC50 (HCT-15; HCT-15, 48 h): > 100 µM | CC50 (MDA-N; [3]): > 100 µM | IC (TGI) (MDA-N; [4]): 21.4 µM | CC50 (SK-MEL-28; SK-MEL-28, 48 h): > 100 µM | IC (TGI) (SK-MEL-28; SK-MEL-28, melanoma, 48 h): > 100 µM | IC (TGI) (HCT-116; [4]): > 100 µM | CC50 (SF-268; SF-268, 48 h): > 100 µM | IC (TGI) (SF-268; SF-268, CNS cancer, 48 h, read-out: Log10 TGI): > 100 µM | GI50 (UACC-62; [5]): 2.34 µM | IC (TGI) (UACC-62; read-out: Log10 TGI): > 100 µM | IC (TGI) (CAKI-1; [4]): 21.4 µM | CC50 (K-562; K562, K-562, leukemia, 48 h): > 100 µM | CC50 (T-47D): > 100 µM | CC50 (HT29; HT-29, 48 h, read-out: Log10 LC50 (converted)): > 100 µM | IC (TGI) (HT29; HT-29, printed H129, colon cancer, 48 h, read-out: Log10 TGI): > 100 µM | CC50 (MCF7; MCF7, 48 h, read-out: Log10 LC50 (converted)): > 100 µM | IC (TGI) (MCF7; MCF7, breast cancer, 48 h, read-out: Log10 TGI): > 100 µM | CC50 (OVCAR-5; OVCAR-5, 48 h, read-out: Log10 LC50 (converted)): > 100 µM | GI50 (OVCAR-5; OVCAR-5, ovarian cancer, 48 h, read-out: Log10 GI50 (converted)): 17 µM | IC (TGI) (OVCAR-5; OVCAR-5, ovarian cancer, 48 h, read-out: Log10 TGI (converted)): > 100 µM | CC50 (SN12C; [3]): > 100 µM | IC (TGI) (SN12C; renal cancer, read-out: Log10 TGI): > 100 µM | CC50 (SNB-75; SNB-75, 48 h): > 100 µM | IC (TGI) (SNB-75; SNB-75, CNS cancer, 48 h, read-out: Log10 TGI): > 100 µM | CC50 (BT-549; BT-549, 48 h): > 100 µM | CC50 (KM12; KM12, 48 h, read-out: Log10 LC50 (converted)): > 100 µM | GI50 (KM12; KM12, colon cancer, 48 h): 0.437 µM | CC50 (TK-10; TK-10, 48 h): > 100 µM | CC50 (NCI-H322M): > 100 µM | CC50 (M14; [3]): > 100 µM | IC (TGI) (M14; read-out: Log10 TGI): > 100 µM | CC50 (MOLT-4 [1]; [6]): > 100 µM | CC50 (MOLT-4 [1]; [7]): > 100 µM | IC50 (MOLT-4 [1]): ~0.1 µM | CC50 (SK-OV-3; SK-OV-3, 48 h, read-out: Log10 LC50 (converted)): > 100 µM | GI50 (SK-OV-3; SK-OV-3, ovarian cancer, 48 h, read-out: Log10 GI50 (converted)): 24 µM | IC (TGI) (SK-OV-3; SK-OV-3, ovarian cancer, 48 h): > 100 µM | CC50 (SR): > 100 µM | CC50 (HOP-92; HOP-92, 48 h, read-out: Log10 LC50 (converted)): > 100 µM | IC (TGI) (HOP-92; HOP-92, non-small cell lung cancer, 48 h, read-out: Log10 TGI (converted)): 21.4 µM | CC50 (DU-145; Homo sapiens, DU-145, 48 h, read-out: Log10 LC50 (converted)): > 100 µM | GI50 (DU-145; Homo sapiens, DU-145, 48 h; read-out: Log10 GI50 (converted)): 19.5 µM | IC (TGI) (DU-145; Homo sapiens, DU-145, 48 h; read-out: Log10 TGI): > 100 µM

CC1CCC2C(C)C(CC(=O)c3ccc(C(=O)CC4OC5OC6(C)CCC7C(C)CCC(C4C)C57OO6)cc3)OC3OC4(C)CCC1C32OO4 (stereo not drawn) [Dimer 38]
CC50 (HCT-15; HCT-15, colon cancer, 48 h): > 100 µM | CC50 (SK-MEL-28; SK-MEL-28, melanoma, 48 h): > 100 µM | IC (TGI) (SK-MEL-28; SK-MEL-28, melanoma, 48 h): > 100 µM | GI50 (HCT-116; [5]): < 0.01 µM | CC50 (SF-268; SF-268, CNS cancer, 48 h): > 100 µM | GI50 (CAKI-1; [5]): 0.0112 µM | GI50 (K-562; K562, 48 h, read-out: Log10 GI50 (converted)): < 0.01 µM | CC50 (K-562; K562, 48 h): > 100 µM | GI50 (T-47D; [5]): < 0.01 µM | CC50 (T-47D): > 100 µM | GI50 (HT29; HT-29, 48 h, read-out: Log10 GI50 (converted)): < 0.01 µM | GI50 (MCF7; MCF7, 48 h, read-out: Log10 GI50 (converted)): < 0.01 µM | concentration for cytostasis (PG 0) (MOLT-4 [2]): approximately 10^-4 M | GI50 (PC-3): < 0.01 µM | GI50 (SNB-75; SNB-75, CNS cancer, 48 h, read-out: Log10 GI50 (converted)): 0.117 µM | CC50 (SNB-75; SNB-75, CNS cancer, 48 h): > 100 µM | CC50 (BT-549; BT-549, breast cancer, 48 h): > 100 µM | GI50 (KM12; KM12, 48 h): < 0.01 µM | CC50 (TK-10; TK-10, renal cancer, 48 h): > 100 µM | IC (TGI) (TK-10; TK-10, renal cancer, 48 h, read-out: Log10 TGI): > 100 µM | GI50 (NCI-H322M; [5]): 3.8 µM | CC50 (NCI-H322M): > 100 µM | IC (TGI) (NCI-H322M; read-out: Log10 TGI): > 100 µM | GI50 (MOLT-4 [1]; MOLT-4, 48 h, read-out: Log10 GI50 (converted)): < 0.01 µM | CC50 (MOLT-4 [1]; [6]): > 100 µM | CC50 (MOLT-4 [1]; [7]): > 100 µM | IC50 (MOLT-4 [1]): < 0.1 µM | GI50 (SW-620; SW-620, 48 h, read-out: Log10 GI50 (converted)): < 0.01 µM | CC50 (SW-620; SW-620, colon cancer, 48 h, read-out: Log10 LC50 (converted)): > 100 µM | GI50 (U251): < 0.01 µM | IC (TGI) (SK-OV-3; SK-OV-3, ovarian cancer, 48 h): 21.4 µM | GI50 (SR; [5]): < 0.01 µM | CC50 (SR; leukemia): > 100 µM | GI50 (COLO 205): < 0.01 µM | CC50 (RPMI-8226; RPMI-8226, 48 h, read-out: Log10 LC50 (converted)): > 100 µM | GI50 (RPMI-8226; RPMI-8226, leukemia, 48 h, read-out: Log10 GI50 (converted)): < 0.01 µM | IC (TGI) (RPMI-8226; RPMI-8226, leukemia, 48 h, read-out: Log10 TGI): < 0.01 µM | CC50 (DU-145; Homo sapiens, DU-145, 48 h; read-out: Log10 LC50 (converted)): > 100 µM
